Like-named read-outs stand apart in the source and are kept apart here.
What was measured:
human TLR7 = human TLR7 (Homo sapiens (Human), UniProt Q9NYK1); experiment: TLR7 inhibition reporter assay (HEK-Blue SEAP); type: cell-based
human TLR8 = human TLR8 (Homo sapiens (Human), UniProt Q9NR97); experiment: TLR8 inhibition reporter assay (HEK-Blue SEAP);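 further: SEAP driven by IFN-β minimal promoter carrying NF-κB and AP-1 sites, compounds dosed 0.05 nM to 50 µM for 22 h, inhibition scaled between agonist-plus-DMSO and reference-inhibitor wells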
Sequence of human TLR8 (Q9NR97 27-1041): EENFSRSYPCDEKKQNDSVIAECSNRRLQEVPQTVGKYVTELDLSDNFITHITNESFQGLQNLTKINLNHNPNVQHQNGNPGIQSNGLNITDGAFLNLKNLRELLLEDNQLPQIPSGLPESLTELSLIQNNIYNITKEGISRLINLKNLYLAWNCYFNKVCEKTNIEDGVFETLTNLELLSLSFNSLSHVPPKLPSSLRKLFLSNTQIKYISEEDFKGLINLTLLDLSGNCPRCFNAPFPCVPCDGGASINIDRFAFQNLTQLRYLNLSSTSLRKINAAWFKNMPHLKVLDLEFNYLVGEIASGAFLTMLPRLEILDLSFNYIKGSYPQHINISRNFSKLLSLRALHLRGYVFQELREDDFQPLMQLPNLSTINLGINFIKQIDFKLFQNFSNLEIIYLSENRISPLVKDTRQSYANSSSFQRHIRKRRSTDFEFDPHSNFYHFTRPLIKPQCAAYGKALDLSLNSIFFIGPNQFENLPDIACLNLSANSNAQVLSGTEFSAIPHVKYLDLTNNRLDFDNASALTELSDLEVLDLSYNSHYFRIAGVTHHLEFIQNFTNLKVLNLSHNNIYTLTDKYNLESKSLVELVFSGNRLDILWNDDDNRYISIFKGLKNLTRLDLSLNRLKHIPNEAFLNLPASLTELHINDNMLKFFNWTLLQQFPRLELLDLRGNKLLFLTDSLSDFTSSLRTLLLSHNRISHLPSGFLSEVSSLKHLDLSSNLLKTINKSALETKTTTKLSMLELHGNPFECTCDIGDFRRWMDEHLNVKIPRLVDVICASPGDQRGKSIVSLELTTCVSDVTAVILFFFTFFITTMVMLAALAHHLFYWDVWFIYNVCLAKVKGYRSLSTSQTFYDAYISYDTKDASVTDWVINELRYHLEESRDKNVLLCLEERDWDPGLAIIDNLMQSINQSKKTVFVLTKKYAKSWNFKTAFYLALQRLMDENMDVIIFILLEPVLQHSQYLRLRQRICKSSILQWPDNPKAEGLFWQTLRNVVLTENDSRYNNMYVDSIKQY

human TLR9 = human TLR9 (Homo sapiens (Human), UniProt Q9NR96); experiment: TLR9 inhibition reporter assay (HEK-Blue SEAP);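 further: SEAP driven by an IFN-β minimal promoter with NF-κB and AP-1 sites, read after 22 h, compounds dosed 0.05 nM–50 µM, inhibition scaled between agonist plus DMSO and reference-inhibitor wells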
Sequence of human TLR9 (Q9NR96 26-1032): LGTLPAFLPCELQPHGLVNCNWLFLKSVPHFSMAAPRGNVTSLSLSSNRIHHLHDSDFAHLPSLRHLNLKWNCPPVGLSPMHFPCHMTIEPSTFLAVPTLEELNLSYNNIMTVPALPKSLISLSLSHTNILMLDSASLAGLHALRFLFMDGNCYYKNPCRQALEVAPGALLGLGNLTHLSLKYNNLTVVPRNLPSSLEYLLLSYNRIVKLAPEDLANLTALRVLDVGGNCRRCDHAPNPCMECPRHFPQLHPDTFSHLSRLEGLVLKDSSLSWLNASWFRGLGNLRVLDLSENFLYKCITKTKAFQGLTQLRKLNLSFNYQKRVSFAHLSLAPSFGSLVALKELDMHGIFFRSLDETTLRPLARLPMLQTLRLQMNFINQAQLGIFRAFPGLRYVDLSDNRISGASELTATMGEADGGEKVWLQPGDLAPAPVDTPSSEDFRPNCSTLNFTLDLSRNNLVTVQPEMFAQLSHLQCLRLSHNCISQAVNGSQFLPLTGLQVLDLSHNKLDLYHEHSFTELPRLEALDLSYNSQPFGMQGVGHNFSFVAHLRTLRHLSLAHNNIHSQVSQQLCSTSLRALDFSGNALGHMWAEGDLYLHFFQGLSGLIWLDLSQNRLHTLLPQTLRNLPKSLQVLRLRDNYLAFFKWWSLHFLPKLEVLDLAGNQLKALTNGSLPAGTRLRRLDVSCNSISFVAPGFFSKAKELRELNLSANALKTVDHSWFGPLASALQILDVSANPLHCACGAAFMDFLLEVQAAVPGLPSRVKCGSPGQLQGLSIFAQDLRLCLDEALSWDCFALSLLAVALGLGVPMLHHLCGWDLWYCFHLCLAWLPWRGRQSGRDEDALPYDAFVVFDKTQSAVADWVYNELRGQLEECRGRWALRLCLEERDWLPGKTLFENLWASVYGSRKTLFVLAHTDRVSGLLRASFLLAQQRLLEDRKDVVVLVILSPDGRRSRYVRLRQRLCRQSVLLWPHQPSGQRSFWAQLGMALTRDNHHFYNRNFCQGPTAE

[1] = HEK-Blue cells overexpressing human TLR7, gardiquimod 7.5 μM stimulation, SEAP reporter
[2] = read-out: TLR8 IC50, HEK-Blue cells overexpressing human TLR8, R848 15.9 μM stimulation, SEAP reporter
[3] = read-out: TLR9 IC50, HEK-Blue cells overexpressing human TLR9, ODN2006 5 nM stimulation, SEAP reporter
[4] = HEK-Blue cells overexpressing human TLR7, SEAP reporter, gardiquimod 7.5 μM
[5] = read-out: TLR8 IC50, HEK-Blue cells overexpressing human TLR8, SEAP reporter, R848 15.9 μM
[6] = read-out: TLR9 IC50, HEK-Blue cells overexpressing human TLR9, SEAP reporter, ODN2006 5 nM
[7] = HEK-Blue human TLR7 cells, gardiquimod 7.5 μM
[8] = read-out: TLR8 IC50, HEK-Blue human TLR8 cells, R848 15.9 μM
[9] = read-out: TLR9 IC50, HEK-Blue human TLR9 cells, ODN2006 5 nM
[10] = TLR8 IC50, HEK-Blue human TLR8 cells, R848 15.9 μM
[11] = TLR9 IC50, HEK-Blue human TLR9 cells, ODN2006 5 nM

Sequence of human TLR7 (Q9NYK1 27-1049): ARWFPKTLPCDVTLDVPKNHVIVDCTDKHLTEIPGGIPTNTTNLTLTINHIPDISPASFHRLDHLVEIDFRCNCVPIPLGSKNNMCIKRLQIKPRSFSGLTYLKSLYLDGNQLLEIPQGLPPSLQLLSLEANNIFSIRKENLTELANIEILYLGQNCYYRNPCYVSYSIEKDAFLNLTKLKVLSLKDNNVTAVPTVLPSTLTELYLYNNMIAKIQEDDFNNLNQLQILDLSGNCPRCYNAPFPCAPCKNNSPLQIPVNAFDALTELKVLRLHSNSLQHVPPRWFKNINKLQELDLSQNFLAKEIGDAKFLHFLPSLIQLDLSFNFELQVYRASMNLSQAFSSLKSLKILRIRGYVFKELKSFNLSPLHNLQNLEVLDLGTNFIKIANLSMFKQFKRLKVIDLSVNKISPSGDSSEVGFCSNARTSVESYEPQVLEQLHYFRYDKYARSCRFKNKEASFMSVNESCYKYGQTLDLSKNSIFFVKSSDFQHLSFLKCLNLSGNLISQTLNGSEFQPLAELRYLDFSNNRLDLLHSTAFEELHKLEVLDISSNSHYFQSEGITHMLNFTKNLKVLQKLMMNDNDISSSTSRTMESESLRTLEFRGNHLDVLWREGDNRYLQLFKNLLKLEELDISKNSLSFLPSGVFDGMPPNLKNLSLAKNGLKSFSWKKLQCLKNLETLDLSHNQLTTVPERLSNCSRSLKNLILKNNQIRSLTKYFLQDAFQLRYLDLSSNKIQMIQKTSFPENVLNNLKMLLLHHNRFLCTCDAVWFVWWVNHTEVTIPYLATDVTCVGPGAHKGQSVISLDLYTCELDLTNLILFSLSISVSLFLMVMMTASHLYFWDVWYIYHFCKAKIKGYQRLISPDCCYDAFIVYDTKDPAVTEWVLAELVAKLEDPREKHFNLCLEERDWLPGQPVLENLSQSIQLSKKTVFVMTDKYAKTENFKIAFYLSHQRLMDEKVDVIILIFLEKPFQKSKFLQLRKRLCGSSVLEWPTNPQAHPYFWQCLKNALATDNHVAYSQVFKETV

Compound | IC50 (human TLR7; [1]) [nM] | IC50 (human TLR8; [2]) [nM] | IC50 (human TLR9; [3]) [µM] | IC50 (human TLR7; [4]) [nM] | IC50 (human TLR8; [5]) [nM] | IC50 (human TLR9; [6]) [µM] | IC50 (human TLR7; [7]) [nM] | other results
CCN(C)C1CCC(c2nc3c(C(C)C)c(-c4cc(OC)c5ncnn5c4)[nH]c3cc2C)CC1 (stereo not drawn) [Example 313] | 0.21 | 7 | 1.2 |  |  |  |  | 
CCCCN(C)CC(=O)N1CCN(c2ccc3[nH]c(-c4cn5ncnc5c(C)c4C)c(C(C)C)c3n2)CC1 [Example 874] |  |  |  |  |  |  | 1.2 | IC50 (human TLR8; [8]): 5.3 nM; IC50 (human TLR9; [9]): 15.5 µM
Cc1c(-c2[nH]c3ccc(N4CCN(C5COC5)CC4=O)nc3c2C(C)C)cn2ncnc2c1C [Example 140] | 127 | 186 | > 50 |  |  |  |  | 
CC(C)c1c(-c2cn(C)c3ncccc23)[nH]c2ccc(C3CCC(N(C)CC(=O)N(C)C)CC3)nc12 (stereo not drawn) [Example 201] | 1.5 | 6 | 0.57 |  |  |  |  | 
CCN(CCS(C)(=O)=O)C1CCC(c2nc3c(C(C)C)c(-c4cn5ncnc5c(C)c4C)[nH]c3cc2F)CC1 (stereo not drawn) [Example 511] |  |  |  | 5.8 | 4.8 | > 50 |  | 
Cc1c(-c2[nH]c3ccc(C4CCC(N(C)C(=O)CN(C)C)CC4)nc3c2C(C)C)cn2ncnc2c1C (stereo not drawn) [Example 404] |  |  |  | 3.8 | 9.3 | 1.54 |  | 
Cc1c(-c2[nH]c3ccc([C@H]4CC[C@@H](N5CC6(C5)CS(=O)(=O)C6)CC4)nc3c2C(C)C)cn2ncnc2c1C [Example 1053] |  |  |  |  |  |  | 2.5 | IC50 (human TLR8; [8]): 4.8 nM; IC50 (human TLR9; [9]): 4.81 µM
CC(C)c1c(-c2cn(CCS(C)(=O)=O)c3ncccc23)[nH]c2ccc(C3CCC(NC4CCCOC4)CC3)nc12 (stereo not drawn) [Example 271] | 120 | 40 | 0.228 |  |  |  |  | 
CC(C)c1c(-c2cc(CO)c3ncnn3c2)[nH]c2ccc(C3CCC(N(C)C4COC4)CC3)nc12 (stereo not drawn) [Example 246] | 1.9 | 2.6 | 4.28 |  |  |  |  | 
[2H]C([2H])([2H])N(CC(=O)N1C([2H])([2H])C([2H])([2H])N(c2ccc3[nH]c(-c4cn5ncnc5c(C)c4C)c(C(C)C)c3n2)C([2H])([2H])C1([2H])[2H])C([2H])([2H])[2H] (single isomer, unassigned) [Example 859] |  |  |  |  |  |  | 0.97 | IC50 (human TLR8; [10]): 1.5 nM; IC50 (human TLR9; [11]): 7.31 µM
CC(C)c1c(-c2cn(CC#N)c3ncccc23)[nH]c2ccc(C3CCC(NCCS(C)(=O)=O)CC3)nc12 (stereo not drawn) [Example 275] | 14 | 8.5 | 0.684 |  |  |  |  | 
Cc1c(-c2[nH]c3ccc(N4CCN(C(=O)CN(C)CC5CC5)CC4)nc3c2C(C)C)cn2ncnc2c1C [Example 966] |  |  |  |  |  |  | 2.4 | IC50 (human TLR8; [8]): 1.3 nM; IC50 (human TLR9; [9]): 6.02 µM
COc1cc(-c2[nH]c3cc(C)c(C4CCC(N(C)C5COC5)CC4)nc3c2C(C)C)cn2ncnc12 (stereo not drawn) [Example 331] | 1.7 | 34 | 1.91 |  |  |  |  | 
COc1cc(-c2[nH]c3ccc(C4CCC(N5CC6(CCO6)C5)CC4)nc3c2C(C)C)cn2ncnc12 (stereo not drawn) [Example 1074] |  |  |  |  |  |  | 0.59 | IC50 (human TLR8; [8]): 1.9 nM; IC50 (human TLR9; [9]): 2.13 µM
CCN(C)CC(=O)N1C[C@H]2CC[C@@H](C1)N2c1ccc2[nH]c(-c3cn4ncnc4c(C)c3C)c(C(C)C)c2n1 [Example 922] |  |  |  |  |  |  | 0.55 | IC50 (human TLR8; [8]): 2.1 nM; IC50 (human TLR9; [9]): 9.37 µM
COc1cc(-c2[nH]c3ccc(C4CNCCO4)nc3c2C(C)C)cn2ncnc12 (stereo not drawn) [Example 671, 2-(3-isopropyl-2-(8-methoxy-[1,2,4]triazolo[1,5-a]pyridin-6-yl)-1H-pyrrolo[3,2-b]pyridin-5-yl)morpholine] |  |  |  | 1.4 | 2.1 | 4.48 |  | 
Cc1cc(-c2[nH]c3cc(F)c(C4CCN(CC(=O)N(C)C)CC4)nc3c2C(C)C)cn2ncnc12 [Example 580] |  |  |  | 0.41 | 8.7 | 1.79 |  | 

Further lines, with some results ahead:

IC50 (human TLR7; [1]) [nM] | IC50 (human TLR8; [2]) [nM] | IC50 (human TLR9; [3]) [µM] | IC50 (human TLR7; [4]) [nM] | IC50 (human TLR8; [5]) [nM] | IC50 (human TLR9; [6]) [µM] | IC50 (human TLR7; [7]) [nM] | Compound | other results
2.8 | 11 | 1.87 |  |  |  |  | COc1cc(-c2[nH]c3ccc(C4CCC(NC5COC5)CC4)nc3c2C(C)C)cn2ncnc12 (stereo not drawn) [Example 180] | 
5.7 | 0.79 | 8.22 |  |  |  |  | COc1cc(-c2[nH]c3ccc(N4CCN(CCC(=O)N(C)C)CC4)nc3c2C(C)C)cn2ncnc12 [Example 136] | 
 |  |  | 8.8 | 6.9 | 3.22 |  | CNC(=O)CN1CCC(c2ccc3[nH]c(-c4cn(C)c(=O)c(Cl)c4C)c(C(C)C)c3n2)CC1 [Example 565] | 
10 | 6 | 0.68 |  |  |  |  | CNC1CCC(c2ccc3[nH]c(-c4cn(CCO)c5ncccc45)c(C(C)C)c3n2)CC1 (stereo not drawn) [Example 299] | 
 |  |  |  |  |  | 0.66 | CCN(C)CC(=O)N1CCN(c2ccc3[nH]c(-c4cn5ncnc5c(C)c4C)c(C(C)C)c3n2)[C@@H](C)C1 [Example 932] | IC50 (human TLR8; [8]): 10 nM; IC50 (human TLR9; [9]): 14.3 µM
0.45 | 1.6 | 0.923 |  |  |  |  | COCCN(C)C1CCC(c2ccc3[nH]c(-c4cn5ncnc5c(C)c4C)c(C(C)C)c3n2)CC1 (stereo not drawn) [Example 389] | 
38 | 28 | 0.322 |  |  |  |  | CNC1CCC(c2ccc3[nH]c(-c4cn(CC#N)c5ncccc45)c(C(C)C)c3n2)CC1 (stereo not drawn) [Example 270] | 
 |  |  | 11 | 8.4 | 5.36 |  | COCCN(C)C(=O)CNC1CCC(c2ccc3[nH]c(-c4cn5ncnc5c(C)c4C)c(C(C)C)c3n2)CC1 (stereo not drawn) [Example 488] | 
 |  |  | 1.1 | 1.4 | 1.95 |  | Cc1c(-c2[nH]c3ccc(C4CCN(CC(=O)N(C)C)CC4)nc3c2C(C)C)cn2ncnc2c1C [Example 540] | 
 |  |  | 0.74 | 0.67 | 3.54 |  | COc1cc(-c2[nH]c3ccc(C4CCC(NCC5(C)COC5)C4)nc3c2C(C)C)cn2ncnc12 (stereo not drawn) [Example 728] | 
8 | 10 | 7.25 |  |  |  |  | CC(C)c1c(-c2cc(CO)c3ncnn3c2)[nH]c2ccc(C3CCC(N(C)C4COC4)CC3)nc12 (stereo not drawn) [Example 252] | 
 |  |  | 1060 | 1100 | 2.52 |  | COc1cc(-c2[nH]c3ccc(C4CCC(N(CCS(C)(=O)=O)CCS(C)(=O)=O)C4)nc3c2C(C)C)cn2ncnc12 (stereo not drawn) [Example 717] | 
 |  |  | 1.9 | 14 | 1.28 |  | COc1cc(-c2[nH]c3ccc(C4CC(N(C)C(=O)CN(C)C)C4)nc3c2C(C)C)cn2ncnc12 (stereo not drawn) [Example 630] | 
 |  |  |  |  |  | 0.56 | Cc1c(-c2[nH]c3ccc(N4C[C@H](C)N(C(=O)CN5CCCC5)C[C@H]4C)nc3c2C(C)C)cn2ncnc2c1C [Example 936] | IC50 (human TLR8; [8]): 3.5 nM; IC50 (human TLR9; [9]): 4.64 µM
 |  |  |  |  |  | 0.53 | [2H]C([2H])([2H])NCCC(=O)N1C[C@H](C)N(c2ccc3[nH]c(-c4cn5ncnc5c(C)c4C)c(C(C)C)c3n2)C[C@H]1C [Example 964] | IC50 (human TLR8; [10]): 0.25 nM; IC50 (human TLR9; [11]): 3.1 µM
 |  |  | 1.1 | 3.3 | 6.85 |  | CCN(CC(=O)N(C)C)C1CCC(c2nc3c(C(C)C)c(-c4cn5ncnc5c(C)c4C)[nH]c3cc2F)CC1 (stereo not drawn) [Example 508] | 
 |  |  | 2.2 | 2.1 | 0.727 |  | Cc1c(-c2[nH]c3ccc(C4CCC(NCc5c[nH]nn5)CC4)nc3c2C(C)C)cn2ncnc2c1C (stereo not drawn) [Example 412] | 
 |  |  |  |  |  | 1.1 | Cc1c(-c2[nH]c3ccc(N4CCN(C(=O)CN(C)C(C)C)[C@H](C)C4)nc3c2C(C)C)cn2ncnc2c1C [Example 943] | IC50 (human TLR8; [8]): 1.1 nM; IC50 (human TLR9; [9]): 10 µM
 |  |  |  |  |  | 0.68 | Cc1c(-c2[nH]c3ccc(N4C[C@@H](C)N(C(=O)CN(C)C(C)(C)C)C[C@@H]4C)nc3c2C(C)C)cn2ncnc2c1C [Example 911] | IC50 (human TLR8; [8]): 1.5 nM; IC50 (human TLR9; [9]): 7.02 µM
